Data reported in the NIST ThermoML archive (doi:10.1021/je900922x).
± gives the expanded uncertainty stated by the source.

Columns and labels:
[1] = Liquid, Pycnometric method
[2] = molar heat capacity at constant pressure; details: Liquid, metal-bellows calorimeter

**Q.** For `COC` [dimethyl ether], which mass density ([1]; 310 K, 2000 kPa) is on record?
**A.** 643.5 ± 1.8 kg/m3

**Q.** And the mass density ([1]; 310 K, 3000 kPa)?
**A.** 646 ± 1.8 kg/m3

**Q.** What about the mass density ([1]; 310 K, 4000 kPa) of the same compound?
**A.** 648 ± 1.8 kg/m3

**Q.** And the mass density ([1]; 310 K, 5000 kPa)?
**A.** 650.2 ± 1.7 kg/m3

**Q.** And the mass density ([1]; 320 K, 2000 kPa)?
**A.** 626 ± 1.8 kg/m3

**Q.** What about the mass density ([1]; 320 K, 3000 kPa) of the same compound?
**A.** 628.7 ± 1.8 kg/m3

**Q.** And the mass density ([1]; 320 K, 4000 kPa)?
**A.** 631.1 ± 1.8 kg/m3

**Q.** What about the mass density ([1]; 320 K, 5000 kPa) of the same compound?
**A.** 634.3 ± 1.7 kg/m3

**Q.** What about the mass density ([1]; 330 K, 2000 kPa) of the same compound?
**A.** 606.5 ± 1.9 kg/m3

**Q.** What about the mass density ([1]; 330 K, 3000 kPa) of the same compound?
**A.** 609.8 ± 1.9 kg/m3

**Q.** What about the mass density ([1]; 330 K, 4000 kPa) of the same compound?
**A.** 613.4 ± 1.8 kg/m3

**Q.** And the mass density ([1]; 330 K, 5000 kPa)?
**A.** 616.5 ± 1.8 kg/m3

**Q.** And the mass density ([1]; 340 K, 2000 kPa)?
**A.** 585.3 ± 1.9 kg/m3

**Q.** What about the mass density ([1]; 340 K, 3000 kPa) of the same compound?
**A.** 589.6 ± 1.9 kg/m3

**Q.** And the mass density ([1]; 340 K, 4000 kPa)?
**A.** 593.6 ± 1.9 kg/m3

**Q.** What about the mass density ([1]; 340 K, 5000 kPa) of the same compound?
**A.** 597.4 ± 1.9 kg/m3

**Q.** And the mass density ([1]; 350 K, 3000 kPa)?
**A.** 566.8 ± 2.1 kg/m3

**Q.** And the mass density ([1]; 350 K, 4000 kPa)?
**A.** 572 ± 2 kg/m3

**Q.** What about the mass density ([1]; 350 K, 5000 kPa) of the same compound?
**A.** 576.7 ± 1.9 kg/m3

**Q.** What about the mass density ([1]; 360 K, 3000 kPa) of the same compound?
**A.** 540.2 ± 2.2 kg/m3

**Q.** And the mass density ([1]; 360 K, 4000 kPa)?
**A.** 547.4 ± 2.1 kg/m3

**Q.** And the mass density ([1]; 360 K, 5000 kPa)?
**A.** 553.5 ± 2 kg/m3

**Q.** And the “molar heat capacity at constant pressure” value ([2]; 310 K, 2000 kPa)?
**A.** 123.92 ± 6 J/K/mol

**Q.** What about the “molar heat capacity at constant pressure” value ([2]; 310 K, 3000 kPa) of the same compound?
**A.** 122.08 ± 6 J/K/mol

**Q.** And the “molar heat capacity at constant pressure” value ([2]; 310 K, 4000 kPa)?
**A.** 121.62 ± 6 J/K/mol

**Q.** What about the “molar heat capacity at constant pressure” value ([2]; 310 K, 5000 kPa) of the same compound?
**A.** 121.16 ± 6 J/K/mol

**Q.** And the “molar heat capacity at constant pressure” value ([2]; 320 K, 2000 kPa)?
**A.** 127.61 ± 6.4 J/K/mol

**Q.** What about the “molar heat capacity at constant pressure” value ([2]; 320 K, 3000 kPa) of the same compound?
**A.** 125.77 ± 6.4 J/K/mol

**Q.** What about the “molar heat capacity at constant pressure” value ([2]; 320 K, 4000 kPa) of the same compound?
**A.** 124.85 ± 6.4 J/K/mol

**Q.** And the “molar heat capacity at constant pressure” value ([2]; 320 K, 5000 kPa)?
**A.** 124.85 ± 6.4 J/K/mol

**Q.** And the “molar heat capacity at constant pressure” value ([2]; 330 K, 2000 kPa)?
**A.** 131.3 ± 6.4 J/K/mol

**Q.** What about the “molar heat capacity at constant pressure” value ([2]; 330 K, 3000 kPa) of the same compound?
**A.** 128.53 ± 6.4 J/K/mol

**Q.** And the “molar heat capacity at constant pressure” value ([2]; 330 K, 4000 kPa)?
**A.** 128.07 ± 6.4 J/K/mol

**Q.** What about the “molar heat capacity at constant pressure” value ([2]; 330 K, 5000 kPa) of the same compound?
**A.** 127.15 ± 6.4 J/K/mol

**Q.** And the “molar heat capacity at constant pressure” value ([2]; 340 K, 2000 kPa)?
**A.** 137.74 ± 6.9 J/K/mol

**Q.** What about the “molar heat capacity at constant pressure” value ([2]; 340 K, 3000 kPa) of the same compound?
**A.** 134.98 ± 6.9 J/K/mol

**Q.** What about the “molar heat capacity at constant pressure” value ([2]; 340 K, 4000 kPa) of the same compound?
**A.** 132.22 ± 6.4 J/K/mol

**Q.** And the “molar heat capacity at constant pressure” value ([2]; 340 K, 5000 kPa)?
**A.** 129.45 ± 6.4 J/K/mol

**Q.** And the “molar heat capacity at constant pressure” value ([2]; 350 K, 3000 kPa)?
**A.** 140.51 ± 6.9 J/K/mol

**Q.** What about the “molar heat capacity at constant pressure” value ([2]; 350 K, 4000 kPa) of the same compound?
**A.** 137.28 ± 6.9 J/K/mol

**Q.** And the “molar heat capacity at constant pressure” value ([2]; 350 K, 5000 kPa)?
**A.** 132.68 ± 6.4 J/K/mol

**Q.** And the “molar heat capacity at constant pressure” value ([2]; 360 K, 3000 kPa)?
**A.** 153.87 ± 7.8 J/K/mol

**Q.** And the “molar heat capacity at constant pressure” value ([2]; 360 K, 4000 kPa)?
**A.** 145.12 ± 7.4 J/K/mol

**Q.** What about the “molar heat capacity at constant pressure” value ([2]; 360 K, 5000 kPa) of the same compound?
**A.** 136.36 ± 6.9 J/K/mol
